Experimental findings from patent US9296723B2, “NAMPT inhibitors” (AbbVie Inc., priority 2012, dated 2016) are described below.

The test system of one assay is PC3 cells. Briefly: NAMPT Cell Proliferation Assay (Cell Titer Glo). The format is cell-based. To be noted: Homo sapiens, PC-3, 120 h, incubated 5 days, cell viability. In short, it runs like this:
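PC3 cells (500/well, RPMI with 10% heat-inactivated FBS) were exposed to 10-fold compound dilutions from […] for 5 days at 37 °C, 5% CO2. Viability was read with Cell Titer Glo; IC50 from sigmoidal fit of percent inhibition.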

The target in assay [1] is T1, NAMPT (Homo sapiens, UniProt P43490). The assay can be described thus: TR-FRET Binding Assay of NAMPT with PRPP. To be noted: 2 nM NAMPT, 2 nM probe, 200 µM PRPP and 2.5 mM ATP, equilibrated 16 hours. The procedure, abridged:
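TR-FRET probe displacement with 2 nM NAMPT, 2 nM probe and 1 nM Tb-anti-His antibody in the presence of 200 µM PRPP and 2.5 mM ATP, 2% DMSO (all final). Equilibrated 16 hours before reading to permit possible enzymatic modification of compounds.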
In general terms: Time-resolved FRET reads energy transfer from a long-lived donor to a nearby acceptor.

Assay [2] deals with T1, NAMPT. Briefly: Time-Resolved Fluorescence Resonance Energy Transfer (TR-FRET) Binding Assay of NAMPT. The following applies: 6.8 nM NAMPT, 200 nM probe, equilibrated 3 hours, no substrates. The procedure, abridged: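 Compound was mixed with enzyme, probe and antibody and equilibrated 3 h at room temperature. TR-FRET read at Ex 337 nm, Em 520/495 nm. Ratios were normalized to controls and fitted to a four-parameter logistic equation for IC50.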

T1 sequence (P43490 whole entry): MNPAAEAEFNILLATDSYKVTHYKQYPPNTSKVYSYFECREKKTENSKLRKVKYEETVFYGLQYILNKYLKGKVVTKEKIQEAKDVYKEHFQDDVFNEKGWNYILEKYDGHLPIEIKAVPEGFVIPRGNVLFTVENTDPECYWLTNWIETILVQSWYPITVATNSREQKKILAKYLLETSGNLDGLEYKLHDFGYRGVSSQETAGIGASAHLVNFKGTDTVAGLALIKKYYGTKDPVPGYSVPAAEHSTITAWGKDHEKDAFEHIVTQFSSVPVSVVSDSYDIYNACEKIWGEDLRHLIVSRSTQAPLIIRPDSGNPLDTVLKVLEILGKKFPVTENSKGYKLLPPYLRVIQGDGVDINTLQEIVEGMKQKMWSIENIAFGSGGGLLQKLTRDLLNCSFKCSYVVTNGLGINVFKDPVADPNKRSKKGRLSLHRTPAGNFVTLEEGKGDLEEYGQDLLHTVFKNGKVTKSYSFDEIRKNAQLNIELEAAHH

For the molecule `O=C(Nc1ccc(C2CN(CC3CCCO3)C2)cc1)N1CC(c2cccnc2)C1` (stereo not drawn) [Example 250, 3-(pyridin-3-yl)-N-{4-[1-(tetrahydrofuran-2-ylmethyl)azetidin-3-yl]phenyl}azetidine-1-carboxamide], the IC50 with PC3 cells is 664 nM; on NAMPT [1], 0.679 nM; at NAMPT [2] it was 865 nM.

As to `CC(C)C(=O)N1CC=C(c2ccc(NC(=O)N3CC(c4cccnc4)C3)cc2)CC1` [Example 27, N-{4-[1-(2-methylpropanoyl)-1,2,3,6-tetrahydropyridin-4-yl]phenyl}-3-(pyridin-3-yl)azetidine-1-carboxamide], the half-inhibitory concentration (IC50) was 9.2 nM with PC3 cells, 0.243 nM at NAMPT [1] and 13 nM on NAMPT [2].

As to `O=C(Nc1ccc(C2CN(CC3CC3)C2)cc1)N1CC(c2cccnc2)C1` [Example 248, N-{4-[1-(cyclopropylmethyl)azetidin-3-yl]phenyl}-3-(pyridin-3-yl)azetidine-1-carboxamide], the IC50 amounted to 1380 nM in the assay on PC3 cells, 0.228 nM at NAMPT [1] and 990 nM at NAMPT [2].

Take `CC(C)(C)OC(=O)N1CCC(CCCCNC(=O)N2CC(c3cccnc3)C2)CC1` [Example 15, tert-butyl 4-[4-({[3-(pyridin-3-yl)azetidin-1-yl]carbonyl}amino)butyl]piperidine-1-carboxylate]: the IC50 in the assay on PC3 cells came to 99.9 nM; on NAMPT [1], 0.917 nM; at NAMPT [2] it was 307 nM.

Turning to `O=C(Nc1ccc(C2CCN(C(=O)c3ccccc3)CC2)cc1)N1CC(c2cccnc2)C1` [Example 57, N-[4-(1-benzoylpiperidin-4-yl)phenyl]-3-(pyridin-3-yl)azetidine-1-carboxamide], the IC50 in the assay with PC3 cells is 3.58 nM; at NAMPT [1], 0.222 nM; on NAMPT [2] it was 6.85 nM.

For the molecule `CC(C)(C)OC(=O)N1CC(c2ccc(NC(=O)N3CC(c4cccnc4)C3)cc2)C1` [Example 62, tert-butyl 3-[4-({[3-(pyridin-3-yl)azetidin-1-yl]carbonyl}amino)phenyl]azetidine-1-carboxylate], the values for the IC50 in the assay on PC3 cells, on NAMPT [1] and on NAMPT [2] were 69.7 nM, 0.467 nM and 91.5 nM, respectively.

For `O=C(CC(F)(F)F)N1CCC(Oc2ccc(NC(=O)N3CC(c4cccnc4)C3)cc2)CC1` [Example 6, 3-(pyridin-3-yl)-N-(4-{[1-(3,3,3-trifluoropropanoyl)piperidin-4-yl]oxy}phenyl)azetidine-1-carboxamide], the values for the IC50 in the assay on PC3 cells, on NAMPT [1] and at NAMPT [2] were 30.6 nM, 0.224 nM and 53.4 nM, respectively.

As for `CC(C)CC(=O)N1CC[C@@H](Oc2ccc(NC(=O)N3CC(c4cccnc4)C3)cc2)C1` [Example 333, N-(4-{[(3R)-1-(3-methylbutanoyl)pyrrolidin-3-yl]oxy}phenyl)-3-(pyridin-3-yl)azetidine-1-carboxamide], the IC50 in the assay on PC3 cells stood at 22.4 nM; at NAMPT [1] it was 0.416 nM; on NAMPT [2], 56.1 nM.

Regarding `O=C(Nc1ccc(OC2CN(C(=O)C3CC3)C2)cc1)N1CC(c2cccnc2)C1` [Example 140, N-(4-{[1-(cyclopropylcarbonyl)azetidin-3-yl]oxy}phenyl)-3-(pyridin-3-yl)azetidine-1-carboxamide], the IC50 in the assay on PC3 cells worked out at 26.3 nM; at NAMPT [1], 0.181 nM; on NAMPT [2], 43 nM.

As for `CC(C)(O)C(=O)N1CC(c2ccc(NC(=O)N3CC(c4cccnc4)C3)cc2)C1` [Example 106, N-{4-[1-(2-hydroxy-2-methylpropanoyl)azetidin-3-yl]phenyl}-3-(pyridin-3-yl)azetidine-1-carboxamide], the values for the IC50 with PC3 cells, on NAMPT [1] and on NAMPT [2] were 576 nM, 0.553 nM and 204 nM, respectively.

Turning to `O=C(Nc1ccc(O[C@@H]2CCN(C(=O)C3CCCCC3)C2)cc1)N1CC(c2cccnc2)C1` [Example 332, N-(4-{[(3R)-1-(cyclohexylcarbonyl)pyrrolidin-3-yl]oxy}phenyl)-3-(pyridin-3-yl)azetidine-1-carboxamide], the IC50 in the assay on PC3 cells worked out at 22.2 nM; on NAMPT [1], 0.474 nM; on NAMPT [2] it was 61.7 nM.

Turning to `COCC(=O)N1CC[C@@H](Oc2ccc(NC(=O)N3CC(c4cccnc4)C3)cc2)C1` [Example 331, N-(4-{[(3R)-1-(methoxyacetyl)pyrrolidin-3-yl]oxy}phenyl)-3-(pyridin-3-yl)azetidine-1-carboxamide], the IC50 was determined as 42.4 nM with PC3 cells, 0.351 nM at NAMPT [1] and 81 nM at NAMPT [2].

Regarding `Cc1ccsc1C(=O)N1CC[C@@H](Oc2ccc(NC(=O)N3CC(c4cccnc4)C3)cc2)C1` [Example 310, N-[4-({(3R)-1-[(3-methylthiophen-2-yl)carbonyl]pyrrolidin-3-yl]oxy}phenyl)-3-(pyridin-3-yl)azetidine-1-carboxamide], the concentration for half-maximal inhibition (IC50) is 2.76 nM in the assay on PC3 cells, 0.297 nM on NAMPT [1] and 4.54 nM at NAMPT [2].

As to `O=C(Nc1ccc(C2CN(C(=O)C3CCCC3)C2)cc1)N1CC(c2cccnc2)C1` [Example 214, N-{4-[1-(cyclopentylcarbonyl)azetidin-3-yl]phenyl}-3-(pyridin-3-yl)azetidine-1-carboxamide], the IC50 in the assay with PC3 cells is 43.7 nM; on NAMPT [1] it was 0.289 nM; on NAMPT [2], 75.8 nM.

On to `O=C(NCC1CCOC1)c1ccc(NC(=O)N2CC(c3cccnc3)C2)cc1` (stereo not drawn) [Example 49, 3-(pyridin-3-yl)-N-{4-[(tetrahydrofuran-3-ylmethyl)carbamoyl]phenyl}azetidine-1-carboxamide], for which the IC50 in the assay with PC3 cells amounted to 80.1 nM; at NAMPT [1], 0.245 nM; at NAMPT [2] it was 150 nM.

Take `O=C(Nc1ccc(OC2CN(C(=O)[C@@H]3CCCO3)C2)cc1)N1CC(c2cccnc2)C1` [Example 29, 3-(pyridin-3-yl)-N-[4-({1-[(2S)-tetrahydrofuran-2-ylcarbonyl]azetidin-3-yl}oxy)phenyl]azetidine-1-carboxamide]: the figures for the IC50 in the assay on PC3 cells, at NAMPT [1] and at NAMPT [2] were 66.1 nM, 0.243 nM and 53.4 nM, respectively.

On to `CC1CC1C(=O)N1CC(Oc2ccc(NC(=O)N3CC(c4cccnc4)C3)cc2)C1` (stereo not drawn) [Example 125, N-[4-({1-[(2-methylcyclopropyl)carbonyl]azetidin-3-yl}oxy)phenyl]-3-(pyridin-3-yl)azetidine-1-carboxamide], for which the half-inhibitory concentration (IC50) in the assay with PC3 cells was determined as 8.12 nM; at NAMPT [1], 0.271 nM; on NAMPT [2] it was 29.3 nM.

With `CCC(C)CN1CCC(c2ccc(NC(=O)N3CC(c4cccnc4)C3)cc2)CC1` (stereo not drawn) [Example 239, N-{4-[1-(2-methylbutyl)piperidin-4-yl]phenyl}-3-(pyridin-3-yl)azetidine-1-carboxamide], the IC50 with PC3 cells was 1510 nM; at NAMPT [1], 0.2 nM; on NAMPT [2], 1680 nM.

Take `COC(=O)c1ccc(NC(=O)N2CC(c3cccnc3)C2)cc1` [Example 13, methyl 4-({[3-(pyridin-3-yl)azetidin-1-yl]carbonyl}amino)benzoate]: the IC50 with PC3 cells was 514 nM; at NAMPT [1] it was 0.374 nM; at NAMPT [2], 201 nM.

Take `O=C1CC[C@@H](C(=O)N2CC[C@@H](Oc3ccc(NC(=O)N4CC(c5cccnc5)C4)cc3)C2)N1` [Example 313, N-(4-{[(3R)-1-(5-oxo-L-prolyl)pyrrolidin-3-yl]oxy}phenyl)-3-(pyridin-3-yl)azetidine-1-carboxamide]: the IC50 in the assay on PC3 cells is 4590 nM; on NAMPT [1], 0.187 nM; at NAMPT [2], 369 nM.

On to `O=C(CN1CCOCC1)N1CC[C@@H](Oc2ccc(NC(=O)N3CC(c4cccnc4)C3)cc2)C1` [Example 302, N-(4-{[(3R)-1-(morpholin-4-ylacetyl)pyrrolidin-3-yl]oxy}phenyl)-3-(pyridin-3-yl)azetidine-1-carboxamide], for which the IC50 with PC3 cells is 141 nM; at NAMPT [1], 0.393 nM; on NAMPT [2] it was 337 nM.

With `O=C(CN1CCOCC1)N1CCC(c2ccc(NC(=O)N3CC(c4cccnc4)C3)cc2)C1` (stereo not drawn) [Example 263, N-{4-[1-(morpholin-4-ylacetyl)pyrrolidin-3-yl]phenyl}-3-(pyridin-3-yl)azetidine-1-carboxamide], the IC50 in the assay on PC3 cells came to 365 nM; on NAMPT [1], 0.239 nM; on NAMPT [2], 143 nM.

With `CN1CCN(CC(=O)N2CC(Oc3ccc(NC(=O)N4CC(c5cccnc5)C4)cc3)C2)CC1` [Example 149, N-[4-({1-[(4-methylpiperazin-1-yl)acetyl]azetidin-3-yl}oxy)phenyl]-3-(pyridin-3-yl)azetidine-1-carboxamide], the IC50 was 76.5 nM in the assay on PC3 cells, 0.219 nM on NAMPT [1] and 22.1 nM on NAMPT [2].

As for `CC(C)(C)OC(=O)N1CCC(c2ccc(NC(=O)N3CC(c4cccnc4F)C3)cc2)CC1` [Example 116, tert-butyl 4-[4-({[3-(2-fluoropyridin-3-yl)azetidin-1-yl]carbonyl}amino)phenyl]piperidine-1-carboxylate], the results for the IC50 in the assay on PC3 cells, on NAMPT [1] and at NAMPT [2] were 135 nM, 0.744 nM and 26.7 nM, respectively.

Consider `CCC(=O)N1CC(c2ccc(NC(=O)N3CC(c4cccnc4)C3)cc2)C1` [Example 226, N-[4-(1-propanoylazetidin-3-yl)phenyl]-3-(pyridin-3-yl)azetidine-1-carboxamide], for which the IC50 in the assay on PC3 cells was 200 nM; on NAMPT [1], 0.44 nM; at NAMPT [2], 169 nM.

For the molecule `COCC(=O)N1CC=C(c2ccc(NC(=O)N3CC(c4cccnc4)C3)cc2)CC1` [Example 20, N-{4-[1-(methoxyacetyl)-1,2,3,6-tetrahydropyridin-4-yl]phenyl}-3-(pyridin-3-yl)azetidine-1-carboxamide], the IC50 in the assay on PC3 cells turned out to be 123 nM; on NAMPT [1] it was 0.5 nM; at NAMPT [2], 68.4 nM.

As a reminder, the IC50 is the midpoint of a concentration-inhibition curve. Lower therefore signals greater potency.
